Test results: PubChem BioAssay (NCI)
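Cultured in 96-well plates, cells were exposed to test compound for 48 hours across five concentrations. GI50: concentration for 50% inhibition of growth. TGI is the concentration that stops growth completely.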

Legend:
Test in all cases: NCI tumour cell line growth inhibition, 48 h
SN12C renal = tested on: SN12C renal
LOX IMVI melanoma = tested on: LOX IMVI melanoma
HS 578T breast = tested on: HS 578T breast
HCT-116 colon = tested on: HCT-116 colon
HL-60(TB) leukemia = tested on: HL-60(TB) leukemia
NCI-H522 lung = tested on: NCI-H522 lung
CAKI-1 renal = tested on: CAKI-1 renal
COLO 205 colon = tested on: COLO 205 colon
SF-268 CNS = tested on: SF-268 CNS
EKVX NSCLC = tested on: EKVX NSCLC
M14 melanoma = tested on: M14 melanoma
A549 NSCLC = tested on: A549 NSCLC
NCI-H460 lung = tested on: NCI-H460 lung
SNB-19 CNS = tested on: SNB-19 CNS
SK-OV-3 ovarian = tested on: SK-OV-3 ovarian
ACHN renal = tested on: ACHN renal
CCRF-CEM leukemia = tested on: CCRF-CEM leukemia
OVCAR-3 ovarian = tested on: OVCAR-3 ovarian
T-47D breast = tested on: T-47D breast
IGROV1 ovarian = tested on: IGROV1 ovarian
RPMI-8226 leukemia = tested on: RPMI-8226 leukemia
HOP-62 NSCLC = tested on: HOP-62 NSCLC
MDA-MB-435 = tested on: MDA-MB-435
BT-549 breast = tested on: BT-549 breast
UACC-62 melanoma = tested on: UACC-62 melanoma
MDA-MB-468 breast = tested on: MDA-MB-468 breast
A498 renal = tested on: A498 renal
OVCAR-8 ovarian = tested on: OVCAR-8 ovarian
MOLT-4 leukemia = tested on: MOLT-4 leukemia
SR leukemia = tested on: SR leukemia
HT29 colon = tested on: HT29 colon
SF-295 CNS = tested on: SF-295 CNS
DU-145 prostate = tested on: DU-145 prostate
UO-31 renal = tested on: UO-31 renal
OVCAR-5 ovarian = tested on: OVCAR-5 ovarian
SW-620 colon = tested on: SW-620 colon
SNB-75 CNS = tested on: SNB-75 CNS
MDA-MB-231 breast = tested on: MDA-MB-231 breast
OVCAR-4 ovarian = tested on: OVCAR-4 ovarian
HOP-92 NSCLC = tested on: HOP-92 NSCLC
HCT-15 colon = tested on: HCT-15 colon
NCI-H226 lung = tested on: NCI-H226 lung
K-562 leukemia = tested on: K-562 leukemia
SK-MEL-28 melanoma = tested on: SK-MEL-28 melanoma
PC-3 prostate = tested on: PC-3 prostate
RXF 393 renal = tested on: RXF 393 renal
U251 CNS = tested on: U251 CNS
NCI/ADR-RES ovarian = tested on: NCI/ADR-RES ovarian
786-0 renal = tested on: 786-0 renal
MALME-3M melanoma = tested on: MALME-3M melanoma
SF-539 CNS = tested on: SF-539 CNS
SK-MEL-2 melanoma = tested on: SK-MEL-2 melanoma
NCI-H23 lung = tested on: NCI-H23 lung
SK-MEL-5 melanoma = tested on: SK-MEL-5 melanoma
HCC-2998 colon = tested on: HCC-2998 colon
KM12 colon = tested on: KM12 colon
MCF7 breast = tested on: MCF7 breast
TK-10 renal = tested on: TK-10 renal

Work on `Cc1ccc(Nc2nnc(-c3c[nH]c4ccccc34)o2)c(C)c1` yielded a GI50 (SN12C renal) of 0.522 µM, a TGI (SN12C renal) of 16.5 µM and a GI50 (LOX IMVI melanoma) of 0.478 µM. It also gave a TGI (LOX IMVI melanoma) of 7.43 µM, a GI50 (HS 578T breast) of 0.333 µM and a TGI (HS 578T breast) of 9.17 µM. The GI50 (HCT-116 colon) was 0.645 µM, the TGI (HCT-116 colon) was 29.2 µM and the GI50 (HL-60(TB) leukemia) was 0.274 µM. The TGI (HL-60(TB) leukemia) was 17.8 µM, the GI50 (NCI-H522 lung) was 0.163 µM and the TGI (NCI-H522 lung) was 1.21 µM. For the same compound, the GI50 (CAKI-1 renal) was 0.483 µM, the TGI (CAKI-1 renal) was 38.9 µM and the GI50 (COLO 205 colon) was 0.447 µM. For the same compound, the TGI (COLO 205 colon) was 2.95 µM, the GI50 (SF-268 CNS) was 0.714 µM and the TGI (SF-268 CNS) was 30.9 µM. For the same compound, the GI50 (EKVX NSCLC) was 0.455 µM, the TGI (EKVX NSCLC) was > 73.1 µM and the GI50 (M14 melanoma) was 0.324 µM. For the same compound, the TGI (M14 melanoma) was 16 µM, the GI50 (A549 NSCLC) was 0.868 µM and the TGI (A549 NSCLC) was > 100 µM. It also gave a GI50 (NCI-H460 lung) of 0.443 µM, a TGI (NCI-H460 lung) of 13.6 µM and a GI50 (SNB-19 CNS) of 0.512 µM. The TGI (SNB-19 CNS) was 43.7 µM, the GI50 (SK-OV-3 ovarian) was 0.502 µM and the TGI (SK-OV-3 ovarian) was 23.8 µM. It also gave a GI50 (ACHN renal) of 0.564 µM, a TGI (ACHN renal) of 30.6 µM and a GI50 (CCRF-CEM leukemia) of 0.311 µM. For the same compound, the TGI (CCRF-CEM leukemia) was > 35.1 µM, the GI50 (OVCAR-3 ovarian) was 0.307 µM and the TGI (OVCAR-3 ovarian) was 3.53 µM. For the same compound, the GI50 (T-47D breast) was 0.325 µM, the TGI (T-47D breast) was > 100 µM and the GI50 (IGROV1 ovarian) was 0.569 µM. The TGI (IGROV1 ovarian) was 20.4 µM, the GI50 (RPMI-8226 leukemia) was 0.424 µM and the TGI (RPMI-8226 leukemia) was > 39.1 µM. The GI50 (HOP-62 NSCLC) was 0.475 µM, the TGI (HOP-62 NSCLC) was 24.3 µM and the GI50 (MDA-MB-435) was 0.046 µM. It also gave a TGI (MDA-MB-435) of 0.25 µM, a GI50 (BT-549 breast) of 0.435 µM and a TGI (BT-549 breast) of 19.9 µM. The GI50 (UACC-62 melanoma) was 0.277 µM, the TGI (UACC-62 melanoma) was 12.2 µM and the GI50 (MDA-MB-468 breast) was 0.3 µM. The TGI (MDA-MB-468 breast) was 1.03 µM, the GI50 (A498 renal) was 18.2 µM and the TGI (A498 renal) was 56.6 µM. The GI50 (OVCAR-8 ovarian) was 0.463 µM, the TGI (OVCAR-8 ovarian) was 9.1 µM and the GI50 (MOLT-4 leukemia) was 0.478 µM. For the same compound, the TGI (MOLT-4 leukemia) was 46.2 µM, the GI50 (SR leukemia) was 0.141 µM and the TGI (SR leukemia) was > 100 µM. The GI50 (HT29 colon) was 0.326 µM, the TGI (HT29 colon) was 2.78 µM and the GI50 (SF-295 CNS) was 0.236 µM. For the same compound, the TGI (SF-295 CNS) was 3.24 µM, the GI50 (DU-145 prostate) was 0.664 µM and the TGI (DU-145 prostate) was > 45.3 µM. The GI50 (UO-31 renal) was 0.53 µM, the TGI (UO-31 renal) was 57 µM and the GI50 (OVCAR-5 ovarian) was 0.756 µM. For the same compound, the TGI (OVCAR-5 ovarian) was 24.2 µM, the GI50 (SW-620 colon) was 0.325 µM and the TGI (SW-620 colon) was > 100 µM. For the same compound, the GI50 (SNB-75 CNS) was 0.255 µM, the TGI (SNB-75 CNS) was 0.968 µM and the GI50 (MDA-MB-231 breast) was 0.62 µM. The TGI (MDA-MB-231 breast) was 15.9 µM, the GI50 (OVCAR-4 ovarian) was 14.9 µM and the TGI (OVCAR-4 ovarian) was > 100 µM. The GI50 (HOP-92 NSCLC) was 8.53 µM, the TGI (HOP-92 NSCLC) was 43.6 µM and the GI50 (HCT-15 colon) was 0.17 µM. The TGI (HCT-15 colon) was 16.7 µM, the GI50 (NCI-H226 lung) was 1.45 µM and the TGI (NCI-H226 lung) was > 100 µM. The GI50 (K-562 leukemia) was 0.0801 µM, the TGI (K-562 leukemia) was > 100 µM and the GI50 (SK-MEL-28 melanoma) was 0.639 µM. For the same compound, the TGI (SK-MEL-28 melanoma) was 31.8 µM, the GI50 (PC-3 prostate) was 0.583 µM and the TGI (PC-3 prostate) was > 100 µM. For the same compound, the GI50 (RXF 393 renal) was 0.375 µM, the TGI (RXF 393 renal) was 7.44 µM and the GI50 (U251 CNS) was 0.394 µM. For the same compound, the TGI (U251 CNS) was 15.4 µM, the GI50 (NCI/ADR-RES ovarian) was 0.109 µM and the TGI (NCI/ADR-RES ovarian) was 0.484 µM. It also gave a GI50 (786-0 renal) of 0.768 µM, a TGI (786-0 renal) of 11.3 µM and a GI50 (MALME-3M melanoma) of 0.323 µM. It also gave a TGI (MALME-3M melanoma) of 18.8 µM, a GI50 (SF-539 CNS) of 0.286 µM and a TGI (SF-539 CNS) of 0.932 µM. For the same compound, the GI50 (SK-MEL-2 melanoma) was 0.302 µM, the TGI (SK-MEL-2 melanoma) was 13.3 µM and the GI50 (NCI-H23 lung) was 0.445 µM. The TGI (NCI-H23 lung) was 12.7 µM, the GI50 (SK-MEL-5 melanoma) was 0.353 µM and the TGI (SK-MEL-5 melanoma) was 15 µM. For the same compound, the GI50 (HCC-2998 colon) was 0.625 µM, the TGI (HCC-2998 colon) was 4.56 µM and the GI50 (KM12 colon) was 0.435 µM. The TGI (KM12 colon) was 14.5 µM, the GI50 (MCF7 breast) was 0.283 µM and the TGI (MCF7 breast) was 13.2 µM. For the same compound, the GI50 (TK-10 renal) was 4.03 µM and the TGI (TK-10 renal) was > 100 µM.
